The text below walks through data of publication PMC8709172, “High-Throughput Screening Campaign Identified a Potential Small Molecule RXFP3/4 Agonist” (Molecules, 2021).

Molecules are shown by their SMILES. Where two headings read alike, the source gives them in different places.

For assay [1], the target named is T1, human RXFP3 (hRXFP3) (Homo sapiens, UniProt Q9NSD7).
T1 sequence (Q9NSD7 1-469): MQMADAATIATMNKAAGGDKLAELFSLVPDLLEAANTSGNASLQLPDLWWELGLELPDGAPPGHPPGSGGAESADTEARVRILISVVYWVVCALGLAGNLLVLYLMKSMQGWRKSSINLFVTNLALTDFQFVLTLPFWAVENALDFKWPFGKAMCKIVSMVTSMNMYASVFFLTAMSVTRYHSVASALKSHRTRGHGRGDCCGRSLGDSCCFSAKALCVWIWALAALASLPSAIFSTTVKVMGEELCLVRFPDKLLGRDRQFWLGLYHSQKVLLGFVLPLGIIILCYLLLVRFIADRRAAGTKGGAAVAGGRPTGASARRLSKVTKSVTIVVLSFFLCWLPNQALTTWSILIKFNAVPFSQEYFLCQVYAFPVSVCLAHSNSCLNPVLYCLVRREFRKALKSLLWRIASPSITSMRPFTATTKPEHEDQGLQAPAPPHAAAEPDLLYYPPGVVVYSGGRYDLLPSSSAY
The experiment in a line: cell-based. Also on record: TR-FRET inhibition of forskolin-stimulated cAMP accumulation, single-dose primary screen, percent of R3/I5 control. The note with it: CHO; primary screen, relative to 5 nM R3/I5; read-out: % activation. The protocol: The HTS campaign was carried out in white 384-well plates by measuring the inhibition of forskolin-stimulated cAMP accumulation in hRXFP3-CHO cells. Briefly, the positive control (5 nM R3/I5) and negative control (1% DMSO) were located at the 64 wells of the outer four columns on both sides with 32 replicates, respectively. The individual screening compounds were loaded at the center twenty columns with an average final concentration of 10 μM in a single-dose format without replicates. Time-resolved fluorescence resonance energy transfer (TR-FRET) signals were read by an EnVision multilabel plate reader (PerkinElmer). Z’ factor, coefficient of variation (CV) and signal-to-background ratio (S/B) were calculated according to the literature. Positive control was regarded as 100% activation, while negative control represented no activation. Compounds showing greater than 50% activation were considered hits, and secondary screening using the same assay was performed to eliminate false positives. cAMP accumulation assay was performed in hRXFP3-CHO cells at a density of 5 × 10^5 cells/mL. […] Plates were incubated at RT for 60 min and the fluorescence intensity measured at 620 nm and 665 nm by an EnVision multilabel plate reader. […]

Assay [2] concerns the target T1, human RXFP3 (hRXFP3). The assay can be described thus: cell-based. Also on record: species or system CHO-K1; Europium-labelled H3 B1-22R competition binding on CHO-K1 cells stably expressing RXFP3. The note with it: vs 5 nM Eu-H3 B1-22R. The protocol: CHO-K1 cells stably transfected with RXFP3 were plated onto pre-coated poly-L-lysine 96-well plates for the binding assay performed using 5 nM europium (Eu)-H3 B1-22R as previously described with triplicate determinations within assay and a minimum of three independent experiments. Data are presented as means ± SEM. pKi values were calculated using one-site fit Ki and a Kd value of 26 nM for H3 B1-22R [47].

The target in a further assay is human RXFP4 (hRXFP4) (Homo sapiens, UniProt Q8TDU9). The assay can be described thus: cAMP accumulation TR-FRET in hRXFP4-CHO cells. Type of assay: cell-based. For orientation: Cyclic AMP is a second messenger, typically raised through Gs and lowered through Gi signalling.
Assay [3] concerns the target T1, human RXFP3 (hRXFP3). The assay can be described thus: cAMP accumulation TR-FRET in hRXFP3-CHO cells. Type of assay: cell-based.
Assay [4] has as its target T1, human RXFP3 (hRXFP3). The assay can be described thus: competition binding with europium-labelled H3 B1-22R on RXFP3 CHO-K1 cells. It counts as cell-based. The note with it: 5 nM Eu-H3 B1-22R, one-site fit Ki, tracer Kd 26 nM; competitive.
In assay [5] the target is T1, human RXFP3 (hRXFP3). The experiment in a line: cell-based. More on the design: HTS inhibition of forskolin-stimulated cAMP, TR-FRET; % activation relative to R3/I5. The note with it: hRXFP3-CHO; primary screen, single dose; read-out: % activation. The protocol:
The HTS campaign was carried out in white 384-well plates by measuring the inhibition of forskolin-stimulated cAMP accumulation in hRXFP3-CHO cells. Briefly, the positive control (5 nM R3/I5) and negative control (1% DMSO) were located at the 64 wells of the outer four columns on both sides with 32 replicates, respectively. The individual screening compounds were loaded at the center twenty columns with an average final concentration of 10 μM in a single-dose format without replicates. Time-resolved fluorescence resonance energy transfer (TR-FRET) signals were read by an EnVision multilabel plate reader (PerkinElmer). Z’ factor, coefficient of variation (CV) and signal-to-background ratio (S/B) were calculated according to the literature. Positive control was regarded as 100% activation, while negative control represented no activation. Compounds showing greater than 50% activation were considered hits, and secondary screening using the same assay was performed to eliminate false positives. cAMP accumulation assay was performed in hRXFP3-CHO cells at a density of 5 × 10^5 cells/mL. The cells were treated with different concentrations of compounds plus 25 μM forskolin and 500 μM IBMX for 30 min at room temperature (RT). cAMP-d2 conjugate and cryptate conjugate working solutions were then diluted and added to the plates separately. Plates were incubated at RT for 60 min and the fluorescence intensity measured at 620 nm and 665 nm by an EnVision multilabel plate reader. The parental CHO cells were applied to examine off-target effect, while hRXFP4-CHO cells were utilized for selectivity assessment.

Sequence of human RXFP4 (hRXFP4) (Q8TDU9 whole entry): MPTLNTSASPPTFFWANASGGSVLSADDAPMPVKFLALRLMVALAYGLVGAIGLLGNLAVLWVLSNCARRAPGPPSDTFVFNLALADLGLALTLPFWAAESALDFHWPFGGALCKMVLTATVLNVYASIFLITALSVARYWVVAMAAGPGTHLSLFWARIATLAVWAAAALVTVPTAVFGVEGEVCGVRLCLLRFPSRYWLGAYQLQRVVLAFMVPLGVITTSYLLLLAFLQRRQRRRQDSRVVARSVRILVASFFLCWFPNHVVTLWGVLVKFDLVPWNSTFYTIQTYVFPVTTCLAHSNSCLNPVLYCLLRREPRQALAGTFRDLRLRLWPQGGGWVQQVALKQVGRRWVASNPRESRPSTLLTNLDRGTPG

The term Ki denotes the equilibrium dissociation constant of an inhibitor or competing ligand from its target. Low values mean higher affinity, high ones lower affinity. By EC50 is commonly meant the midpoint of the concentration-response curve. In the case of `CC(C)(CCc1ccc(NS(=O)(=O)c2ccccc2)cc1)NCC(O)COc1ccc(O)c(NS(C)(=O)=O)c1` (racemic) [WNN0109-C011], the activity at 10 µM at human RXFP3 (hRXFP3) [1] was determined as 85%. Further, the Ki at human RXFP3 (hRXFP3) [2] is 41.7 µM. Further, the half-maximal effective concentration (EC50) at human RXFP4 (hRXFP4) is 33.9 µM; on human RXFP3 (hRXFP3) [3], 2.51 µM. For the same compound, the pKi entry on human RXFP3 (hRXFP3) [4] was “further confirmed the direct binding of WNN0109-C011 and its two enantiomers with RXFP3”.
Consider `CC(C)(CCc1ccc(NS(=O)(=O)c2ccccc2)cc1)NC[C@@H](O)COc1ccc(O)c(NS(C)(=O)=O)c1` [R-WNN0109-C011], for which, on human RXFP3 (hRXFP3) [2], the affinity, expressed as Ki, was 31.6 µM. Moreover, the pKi entry at human RXFP3 (hRXFP3) [4] was “further confirmed the direct binding of WNN0109-C011 and its two enantiomers with RXFP3”.
Compound `CC(C)(CCc1ccc(NS(=O)(=O)c2ccccc2)cc1)NC[C@H](O)COc1ccc(O)c(NS(C)(=O)=O)c1` [S-WNN0109-C011] gave an inhibition constant (Ki) at human RXFP3 (hRXFP3) [2] of 91.2 µM. The pKi entry on human RXFP3 (hRXFP3) [4] was “further confirmed the direct binding of WNN0109-C011 and its two enantiomers with RXFP3”.
Turning to `O=C(O)Cn1c(=O)c(=O)[nH]c2c(Br)cc(Br)cc21` [WNN0002-F006], the activity at 10 µM on human RXFP3 (hRXFP3) [5] is 73%.
On the same count and under the same terms, for `Nc1ccc2sc3[nH]c(=O)c(=O)[nH]c3c2c1` [WNN0003-B006] the value was 54%; for `O=c1[nH]c2scc(C3CCCCC3)c2[nH]c1=O` [WNN0003-F007], 51%.
On the same count and under the same terms, under `Cc1sc2[nH]c(=O)c(=O)[nH]c2c1C` [WNN0003-G011] stands 54%; under `Cc1csc2[nH]c(=O)c(=O)n(C)c12` [WNN0004-D007], 57%.
Turning to `O=C1NCCCC1C1=NC(CO)(CO)CO1` (stereo not drawn) [WNN0027-E003], the activity at 10 µM at human RXFP3 (hRXFP3) [5] was 53%.
As to `CS/C(=N/C#N)Nc1ccc2c(c1)OCCO2` [WNN0027-G008], the activity at 10 µM at human RXFP3 (hRXFP3) [5] worked out at 56%.
Same read-out and setting: for `O=C(CCCCN1CCCCC1)c1ccccc1` [WNN0028-D009] the value was 56%; for `O=C(O)C1CCCN(CCC=C2c3ccccc3CCc3cc(-c4ccccc4)ccc32)C1` (stereo not drawn) [WNN0063-E008], 68%; for `O=C(O)C1CCN(CCC=C2c3ccccc3CCc3cc(-c4ccccc4)ccc32)CC1` [WNN0063-E009], 130%.
In the case of `O=c1[nH]c2ccccc2n(C(c2ccccc2)c2ccccc2)c1=O` [WNN0119-H005], the activity at 10 µM at human RXFP3 (hRXFP3) [5] was 82%.
With `O=C(c1ccccc1O)N1CCc2nc3ncccc3cc2C1` [WNN0195-H002], the activity at 10 µM on human RXFP3 (hRXFP3) [5] was 65%.
Same read-out and setting: for `CSc1nccc(-c2ccc(Br)s2)n1` [WNN0196-B004] the value was 78%; for `C[N+](C)=c1ccc2nc3ccc(N)cc3sc-2c1` [WNN0314-F004], 50%; for `CN(C)c1ccc2nc3ccc(=[N+](C)C)cc-3sc2c1` [WNN0314-G003], 51%.
